Key:
Assay type in all cases: cell-based, medaka (Oryzias latipes)
[1] = test system: follicle-stimulating hormone β subunit (fshb) gene expression; experiment: Ex vivo pituitary organ culture, real-time PCR of fshb; conditions: for fshb expression (in words): female pituitaries, 10^-5 M, 24 h, 25 °C, vs vehicle;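 for fshb expression (Fig. 8, fshb): relative expression with female control samples set to 1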
From the text: (§1) Fig. 8 Pacap and Vip have pleiotropic effects on the expression of anterior pituitary hormones. The effects of Pacap and Vip on gene expression levels of follicle-stimulating hormone β subunit (fshb), luteinizing hormone β subunit (lhb), thyroid-stimulating hormone β subunit (tshb), growth hormone (gh), somatolactin (sl), prolactin (prl), and pro-opiomelanocortin (pomc) were investigated by using male and female pituitaries cultured ex vivo (n = 6 per group, except male pituitary supplemented with Vip, where n = 5). Data were expressed as means with error bars representing standard error of the mean. Statistical differences were assessed by Dunnett’s post-hoc test. *p < 0.05; **p < 0.01; ***p < 0.001.
(§2) The pituitaries from five male or female fish were pooled for each sample and cultured ex vivo in Leibovitz’s L-15 medium supplemented with 5% charcoal-stripped fetal bovine serum as described elsewhere. The medium was further supplemented with 10^−5 M medaka Pacap or Vip, or vehicle alone. After 24 h of culture at 25 °C, the pituitaries were processed for total RNA extraction and cDNA synthesis by using the RNeasy Plus Micro Kit (Qiagen) and SuperScript VILO cDNA Synthesis Kit (Thermo Fisher Scientific), respectively. Real-time PCR was performed on the LightCycler 480 System II using LightCycler 480 SYBR Green I Master (Roche Diagnostics). The cycle conditions were: 95 °C for 5 min followed by 45 cycles of 95 °C for 10 sec, 60 °C for 10 sec and 72 °C for 10 sec. Melting curve analysis was performed as described above. Data were normalized to the geometric mean of three reference genes, actb, gapdh (encoding glyceraldehyde-3-phosphate dehydrogenase; National BioResource Project (NBRP) Medaka clone ID olbrno9_f15) and rpl13 (encoding ribosomal protein L13; NBRP Medaka clone ID olovano51_b24), according to Vandesompele et al.[63]. The primers used for real-time PCR are listed in Supplementary Table 3.

[2] = test system: thyroid-stimulating hormone β subunit (tshb) gene expression; experiment: Ex vivo pituitary organ culture, real-time PCR of tshb; conditions: for tshb expression (in words): 10^-5 M, 24 h, 25 °C, vs vehicle
From the text: as §1, §2

[3] = test system: growth hormone (gh) gene expression; experiment: Ex vivo pituitary organ culture, real-time PCR of gh; conditions: for gh expression (in words): 10^-5 M, 24 h, 25 °C, vs vehicle
From the text: as §1, §2

[4] = test system: somatolactin (sl) gene expression; experiment: Ex vivo pituitary organ culture, real-time PCR of sl; conditions: for sl expression (in words): 10^-5 M, 24 h, 25 °C, vs vehicle
From the text: as §1, §2

[5] = test system: pro-opiomelanocortin (pomc) gene expression; experiment: Ex vivo pituitary organ culture, real-time PCR of pomc; conditions: for pomc expression (in words): male pituitaries, 10^-5 M, 24 h, 25 °C, vs vehicle;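 for pomc expression (Fig. 8, pomc): relative expression with female control samples set to 1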
From the text: as §1, §2

Pituitary adenylate cyclase-activating polypeptide [Pacap]
fshb expression (in words) [1]: significantly reduced | fshb expression (Fig. 8, fshb) ([1]; female, replicate 1): 0.383 | fshb expression (Fig. 8, fshb) ([1]; female, replicate 2): 0.806 | fshb expression (Fig. 8, fshb) ([1]; female, replicate 3): 0.807 | fshb expression (Fig. 8, fshb) ([1]; female, replicate 4): 0.427 | fshb expression (Fig. 8, fshb) ([1]; female, replicate 5): 0.650 | fshb expression (Fig. 8, fshb) ([1]; female, replicate 6): 0.545 | fshb expression (Fig. 8, fshb) ([1]; male, replicate 1): 0.173 | fshb expression (Fig. 8, fshb) ([1]; male, replicate 2): 0.236 | fshb expression (Fig. 8, fshb) ([1]; male, replicate 3): 0.293 | fshb expression (Fig. 8, fshb) ([1]; male, replicate 4): 0.230 | fshb expression (Fig. 8, fshb) ([1]; male, replicate 5): 0.290 | fshb expression (Fig. 8, fshb) ([1]; male, replicate 6): 0.452 | tshb expression (in words) ([2]; female pituitaries): no significant effects | tshb expression (Fig. 8, tshb) ([2]; female, replicate 1): 0.514 | tshb expression (Fig. 8, tshb) ([2]; female, replicate 2): 0.485 | tshb expression (Fig. 8, tshb) ([2]; female, replicate 3): 0.534 | tshb expression (Fig. 8, tshb) ([2]; female, replicate 4): 0.502 | tshb expression (Fig. 8, tshb) ([2]; female, replicate 5): 0.686 | tshb expression (Fig. 8, tshb) ([2]; female, replicate 6): 0.387 | tshb expression (in words) ([2]; male pituitaries): no significant effects | tshb expression (Fig. 8, tshb) ([2]; male, replicate 1): 0.207 | tshb expression (Fig. 8, tshb) ([2]; male, replicate 2): 0.364 | tshb expression (Fig. 8, tshb) ([2]; male, replicate 3): 1.165 | tshb expression (Fig. 8, tshb) ([2]; male, replicate 4): 0.157 | tshb expression (Fig. 8, tshb) ([2]; male, replicate 5): 2.250 | tshb expression (Fig. 8, tshb) ([2]; male, replicate 6): 0.895 | gh expression (in words) ([3]; female pituitaries): no significant effects | gh expression (Fig. 8, gh) ([3]; female, replicate 1): 0.960 | gh expression (Fig. 8, gh) ([3]; female, replicate 2): 0.795 | gh expression (Fig. 8, gh) ([3]; female, replicate 3): 0.779 | gh expression (Fig. 8, gh) ([3]; female, replicate 4): 0.968 | gh expression (Fig. 8, gh) ([3]; female, replicate 5): 0.957 | gh expression (Fig. 8, gh) ([3]; female, replicate 6): 1.344 | gh expression (in words) ([3]; male pituitaries): no significant effects | gh expression (Fig. 8, gh) ([3]; male, replicate 1): 0.248 | gh expression (Fig. 8, gh) ([3]; male, replicate 2): 0.325 | gh expression (Fig. 8, gh) ([3]; male, replicate 3): 0.488 | gh expression (Fig. 8, gh) ([3]; male, replicate 4): 0.330 | gh expression (Fig. 8, gh) ([3]; male, replicate 5): 0.376 | gh expression (Fig. 8, gh) ([3]; male, replicate 6): 0.724 | sl expression (in words) ([4]; female pituitaries): substantially increased | sl expression (Fig. 8, sl) ([4]; female, replicate 1): 5.138 | sl expression (Fig. 8, sl) ([4]; female, replicate 2): 3.103 | sl expression (Fig. 8, sl) ([4]; female, replicate 3): 4.426 | sl expression (Fig. 8, sl) ([4]; female, replicate 4): 3.042 | sl expression (Fig. 8, sl) ([4]; female, replicate 5): 2.318 | sl expression (Fig. 8, sl) ([4]; female, replicate 6): 4.074 | sl expression (in words) ([4]; male pituitaries): substantially increased | sl expression (Fig. 8, sl) ([4]; male, replicate 1): 1.710 | sl expression (Fig. 8, sl) ([4]; male, replicate 2): 1.255 | sl expression (Fig. 8, sl) ([4]; male, replicate 3): 1.415 | sl expression (Fig. 8, sl) ([4]; male, replicate 4): 1.513 | sl expression (Fig. 8, sl) ([4]; male, replicate 5): 0.886 | sl expression (Fig. 8, sl) ([4]; male, replicate 6): 2.724 | pomc expression (Fig. 8, pomc) ([5]; female, replicate 1): 1.650 | pomc expression (Fig. 8, pomc) ([5]; female, replicate 2): 0.962 | pomc expression (Fig. 8, pomc) ([5]; female, replicate 3): 1.174 | pomc expression (Fig. 8, pomc) ([5]; female, replicate 4): 1.174 | pomc expression (Fig. 8, pomc) ([5]; female, replicate 5): 1.328 | pomc expression (Fig. 8, pomc) ([5]; female, replicate 6): 1.116 | pomc expression (in words) [5]: reduced | pomc expression (Fig. 8, pomc) ([5]; male, replicate 1): 5.882 | pomc expression (Fig. 8, pomc) ([5]; male, replicate 2): 3.434 | pomc expression (Fig. 8, pomc) ([5]; male, replicate 3): 4.022 | pomc expression (Fig. 8, pomc) ([5]; male, replicate 4): 3.555 | pomc expression (Fig. 8, pomc) ([5]; male, replicate 5): 1.951 | pomc expression (Fig. 8, pomc) ([5]; male, replicate 6): 4.484

vasoactive intestinal peptide [Vip]
fshb expression (in words) [1]: significantly reduced | fshb expression (Fig. 8, fshb) ([1]; female, replicate 1): 0.539 | fshb expression (Fig. 8, fshb) ([1]; female, replicate 2): 0.835 | fshb expression (Fig. 8, fshb) ([1]; female, replicate 3): 0.607 | fshb expression (Fig. 8, fshb) ([1]; female, replicate 4): 0.498 | fshb expression (Fig. 8, fshb) ([1]; female, replicate 5): 0.542 | fshb expression (Fig. 8, fshb) ([1]; female, replicate 6): 0.944 | fshb expression (Fig. 8, fshb) ([1]; male, replicate 1): 0.537 | fshb expression (Fig. 8, fshb) ([1]; male, replicate 2): 0.688 | fshb expression (Fig. 8, fshb) ([1]; male, replicate 3): 0.453 | fshb expression (Fig. 8, fshb) ([1]; male, replicate 5): 0.338 | fshb expression (Fig. 8, fshb) ([1]; male, replicate 6): 0.319 | tshb expression (in words) ([2]; female pituitaries): no significant effects | tshb expression (Fig. 8, tshb) ([2]; female, replicate 1): 1.106 | tshb expression (Fig. 8, tshb) ([2]; female, replicate 2): 0.773 | tshb expression (Fig. 8, tshb) ([2]; female, replicate 3): 0.549 | tshb expression (Fig. 8, tshb) ([2]; female, replicate 4): 1.002 | tshb expression (Fig. 8, tshb) ([2]; female, replicate 5): 0.461 | tshb expression (Fig. 8, tshb) ([2]; female, replicate 6): 0.560 | tshb expression (in words) ([2]; male pituitaries): no significant effects | tshb expression (Fig. 8, tshb) ([2]; male, replicate 1): 0.809 | tshb expression (Fig. 8, tshb) ([2]; male, replicate 2): 1.442 | tshb expression (Fig. 8, tshb) ([2]; male, replicate 3): 0.793 | tshb expression (Fig. 8, tshb) ([2]; male, replicate 5): 0.484 | tshb expression (Fig. 8, tshb) ([2]; male, replicate 6): 0.743 | gh expression (in words) ([3]; female pituitaries): no significant effects | gh expression (Fig. 8, gh) ([3]; female, replicate 1): 0.831 | gh expression (Fig. 8, gh) ([3]; female, replicate 2): 0.891 | gh expression (Fig. 8, gh) ([3]; female, replicate 3): 0.819 | gh expression (Fig. 8, gh) ([3]; female, replicate 4): 0.622 | gh expression (Fig. 8, gh) ([3]; female, replicate 5): 0.476 | gh expression (Fig. 8, gh) ([3]; female, replicate 6): 1.314 | gh expression (in words) ([3]; male pituitaries): no significant effects | gh expression (Fig. 8, gh) ([3]; male, replicate 1): 0.673 | gh expression (Fig. 8, gh) ([3]; male, replicate 2): 0.774 | gh expression (Fig. 8, gh) ([3]; male, replicate 3): 0.572 | gh expression (Fig. 8, gh) ([3]; male, replicate 5): 0.496 | gh expression (Fig. 8, gh) ([3]; male, replicate 6): 0.481 | sl expression (in words) ([4]; female pituitaries): substantially increased | sl expression (Fig. 8, sl) ([4]; female, replicate 1): 2.764 | sl expression (Fig. 8, sl) ([4]; female, replicate 2): 2.848 | sl expression (Fig. 8, sl) ([4]; female, replicate 3): 3.893 | sl expression (Fig. 8, sl) ([4]; female, replicate 4): 3.276 | sl expression (Fig. 8, sl) ([4]; female, replicate 5): 2.230 | sl expression (Fig. 8, sl) ([4]; female, replicate 6): 4.010 | sl expression (in words) ([4]; male pituitaries): substantially increased | sl expression (Fig. 8, sl) ([4]; male, replicate 1): 2.507 | sl expression (Fig. 8, sl) ([4]; male, replicate 2): 2.455 | sl expression (Fig. 8, sl) ([4]; male, replicate 3): 2.960 | sl expression (Fig. 8, sl) ([4]; male, replicate 5): 2.682 | sl expression (Fig. 8, sl) ([4]; male, replicate 6): 1.395 | pomc expression (Fig. 8, pomc) ([5]; female, replicate 1): 1.053 | pomc expression (Fig. 8, pomc) ([5]; female, replicate 2): 1.048 | pomc expression (Fig. 8, pomc) ([5]; female, replicate 3): 0.787 | pomc expression (Fig. 8, pomc) ([5]; female, replicate 4): 1.201 | pomc expression (Fig. 8, pomc) ([5]; female, replicate 5): 1.189 | pomc expression (Fig. 8, pomc) ([5]; female, replicate 6): 1.854 | pomc expression (in words) [5]: no significant effect | pomc expression (Fig. 8, pomc) ([5]; male, replicate 1): 3.570 | pomc expression (Fig. 8, pomc) ([5]; male, replicate 2): 3.612 | pomc expression (Fig. 8, pomc) ([5]; male, replicate 3): 5.174 | pomc expression (Fig. 8, pomc) ([5]; male, replicate 5): 6.158 | pomc expression (Fig. 8, pomc) ([5]; male, replicate 6): 3.870
